Measured values reported in ChEMBL document CHEMBL2412962, “Human acidic mammalian chitinase as a novel target for anti-asthma drug design using in silico screening” (Bioorg Med Chem, 2013).

Biological target: Acidic mammalian chitinase (Homo sapiens, UniProt Q9BZP6)
Assay: Inhibition of His-tagged recombinant human acidic mammalian chitinase expressed in Escherichia coli Rosetta-gami 2 (DE3) using 4MU-(GlcNAc)2 as substrate assessed as production of 4-methylumbelliferone measured every 5 mins by fluorescence assay

Sequence of Acidic mammalian chitinase (Q9BZP6 whole entry): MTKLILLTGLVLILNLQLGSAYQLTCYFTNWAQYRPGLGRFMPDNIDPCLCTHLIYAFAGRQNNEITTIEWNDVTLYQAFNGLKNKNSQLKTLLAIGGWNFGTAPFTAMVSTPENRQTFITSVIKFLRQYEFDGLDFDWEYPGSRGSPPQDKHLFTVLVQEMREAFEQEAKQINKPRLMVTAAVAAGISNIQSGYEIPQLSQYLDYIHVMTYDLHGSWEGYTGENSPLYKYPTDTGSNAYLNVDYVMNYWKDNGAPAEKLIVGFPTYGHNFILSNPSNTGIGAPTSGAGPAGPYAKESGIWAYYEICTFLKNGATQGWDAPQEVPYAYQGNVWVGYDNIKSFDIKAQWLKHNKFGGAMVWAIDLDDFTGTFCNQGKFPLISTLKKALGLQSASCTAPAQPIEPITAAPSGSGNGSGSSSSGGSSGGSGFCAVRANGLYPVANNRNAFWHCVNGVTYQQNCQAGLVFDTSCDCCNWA

Structure (SMILES): CN=C(S)NNC(=O)c1oc2nc(-c3ccccc3)cc(C)c2c1N
- IC50: 30 µM
